Here are results for 25 compounds from publication PMC5493200 (ACS infectious diseases, 2016).

For data set [1], the system named is M. tuberculosis H37Rv Rv1258c knockout (KO). In words: microbe, parasite or virus in culture. In kind it is cell-based. The settings on record: Tables 1-4 and text; 7 days, 7H9 broth.
Data set [2] relates to M. tuberculosis H37Rv. The data set is described as follows: microbe, parasite or virus in culture. It is filed as cell-based, Mycobacterium tuberculosis. The settings on record: Tables 1-4 and text; […].
Data set [3] addresses Purified 70S M. smegmatis bacterial ribosomes (Mycolicibacterium smegmatis, UniProt A0QSG6). In words: Ribosomal translation inhibition. The settings on record: for Ribosome IC50: inhibits luciferase activity by 50%. It is filed as biochemical.
Data set [4] deals with Rv1258c efflux pump. The settings on record: for Efflux Ratio: H37Rv MIC / Rv1258c KO MIC.

Sequence of Purified 70S M. smegmatis bacterial ribosomes (A0QSG6 whole entry): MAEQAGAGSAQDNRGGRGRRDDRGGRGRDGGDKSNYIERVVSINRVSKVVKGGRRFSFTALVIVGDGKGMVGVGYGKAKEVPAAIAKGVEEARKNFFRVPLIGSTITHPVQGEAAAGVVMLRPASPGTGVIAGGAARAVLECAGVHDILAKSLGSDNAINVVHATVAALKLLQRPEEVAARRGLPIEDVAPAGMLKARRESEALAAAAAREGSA

Consider `CNC1C(O)C(NC)C2OC3(O)C(OC(C)C[C@H]3NC(=O)Cc3cccnc3)OC2C1O.Cl.Cl.Cl` (stereo partly drawn) [Compound 3, 3′-Dihydro-3′-deoxy-3′(R)-(pyridin-3yl)acetylamino spectinomycin trihydrochloride], for which the “Rv1258c KO MIC” value in data set [1] amounted to 6.3 µg/mL. Further, the “H37Rv MIC” value in data set [2] came out at 200 µg/mL.

As to `CNC1C(O)C(NC)C2OC3(O)C(OC(C)C[C@H]3NC(=O)Cc3ccncc3)OC2C1O.Cl.Cl.Cl` (stereo partly drawn) [Compound 4, 3′-Dihydro-3′-deoxy-3′(R)-(pyridin-4yl)acetylamino spectinomycin trihydrochloride], the “Rv1258c KO MIC” value in data set [1] was 12.5 µg/mL. Moreover, the “H37Rv MIC” value in data set [2] is 200 µg/mL.

Take `Br.Br.Br.CNC1C(O)C(NC)C2OC3(O)C(NC(=O)Cc4ccccn4)CC(C)OC3OC2C1O` [Compound 5, 3′-Dihydro-3′-deoxy-3′(S)-(pyridin-2-yl)acetylamino spectinomycin Trihydrobromide]: in data set [3], the “Ribosome IC50” value came out at 42.23 µg/mL. Further, the “Rv1258c KO MIC” value in data set [1] is more than 200 µg/mL.

For the compound `CNC1C(O)C(NC)C2OC3(O)C(OC(C)C[C@H]3NCCc3ccccc3)OC2C1O.Cl.Cl.Cl` (stereo partly drawn) [Compound 6, 3′-Dihydro-3′-deoxy-4(R)-2-phenylethylamino spectinomycin trihydrochloride], the “H37Rv MIC” value in data set [2] worked out at 200 µg/mL.

On to `CNC1C(O)C(NC)C2OC3(O)C(OC(C)C[C@H]3NC(=O)Oc3ccccc3)OC2C1O.Cl.Cl` (stereo partly drawn) [Compound 7, 3′-Dihydro-3′-deoxy-3′(R)-phenyloxycarbonylamino spectinomycin dihydrochloride], for which the “Ribosome IC50” value in data set [3] was found to be 16.62 µg/mL. In addition, in data set [1], the “Rv1258c KO MIC” value is more than 200 µg/mL. Also, in data set [2], the “H37Rv MIC” value is more than 200 µg/mL.

As to `Br.Br.Br.CNC1C(O)C(NC)C2OC3(O)C(OC(C)C[C@H]3NC(=O)Nc3ccccc3)OC2C1O` (stereo partly drawn) [Compound 8, 3′-Dihydro-3′-deoxy-3′(R)-phenylaminocarbonylamino spectinomycin trihydrobromide], in data set [3], the “Ribosome IC50” value came out at 3.77 µg/mL. Also, the “Rv1258c KO MIC” value in data set [1] stood at 25 µg/mL. Moreover, the “Efflux Ratio” value in data set [4] is more than 8.

Turning to `Br.Br.CNC1C(O)C(NC)C2OC3(O)C(NS(=O)(=O)Cc4ccccc4)CC(C)OC3OC2C1O` [Compound 9, 3′-Dihydro-3′-deoxy-3′(R)-benzylsulfonylamino spectinomycin dihydrobromide], in data set [3], the “Ribosome IC50” value came to 10.97 µg/mL. The “Rv1258c KO MIC” value in data set [1] turned out to be 12.5 µg/mL. In addition, the “H37Rv MIC” value in data set [2] was more than 200 µg/mL. Further, the “Efflux Ratio” value in data set [4] is reported as more than 16.

Regarding `CNC1C(O)C(NC)C2OC3(O)C(NC(=O)Nc4ccccn4)CC(C)OC3OC2C1O.Cl.Cl` [Compound 10, 3′-Dihydro-3′-deoxy-3′(R)-(pyridin-2-yl)aminocarbonylamino spectinomycin dihydrochloride], the “Ribosome IC50” value in data set [3] stood at 2.24 µg/mL. Further, the “Rv1258c KO MIC” value in data set [1] was 3.1 µg/mL. The “H37Rv MIC” value in data set [2] is 12.5 µg/mL. The “Efflux Ratio” value in data set [4] came out at 4.

`CNC1C(O)C(NC)C2OC3(O)C(NC(=O)c4ccccn4)CC(C)OC3OC2C1O.Cl.Cl.Cl` [Compound 11, 3′-Dihydro-3′-deoxy-3′(R)-pyridin-2-carboxylicamino spectinomycin trihydrochloride]: the “Rv1258c KO MIC” value in data set [1] is more than 200 µg/mL.

Regarding `Br.Br.Br.CNC1C(O)C(NC)C2OC3(O)C(NC(=O)CCc4ccccn4)CC(C)OC3OC2C1O` [Compound 12, 3′-Dihydro-3′-deoxy-3′(R)-(pyridin-2-yl)propanoylamino spectinomycin trihydrobromide], the “Ribosome IC50” value in data set [3] is 3.80 µg/mL. For the same compound, the “Rv1258c KO MIC” value in data set [1] is 6.3 µg/mL. The “H37Rv MIC” value in data set [2] was determined as 50 µg/mL. Further, in data set [4], the “Fold change of MIC between H37Rv and Rv1258c KO (efflux)” value (“Fold change” below) is listed as 8 fold; the “Efflux Ratio” value is given as 8.

`CN[C@@H]1[C@H](O)[C@H](NC)[C@H]2O[C@]3(O)[C@H](O[C@@H]2[C@H]1O)O[C@H](C)C[C@H]3NC(=O)Cc1ncccn1.Cl.Cl` [Compound 13, 3′-Dihydro-3′-deoxy-3′(R)-(pyrimidin-2yl)acetylamino spectinomycin dihydrochloride] returned an IC50 in data set [3] (as printed in modeling section) of 45.5 µM. Besides, the “Ribosome IC50” value in data set [3] stood at 45.50 µg/mL. In data set [3] (relative to 1), the “Fold weaker binding than 1” value was 39 fold. Besides, the “Rv1258c KO MIC” value in data set [1] was more than 200 µg/mL.

In the case of `Br.Br.Br.CNC1C(O)C(NC)C2OC3(O)C(NC(=O)Cc4cccnn4)CC(C)OC3OC2C1O` [Compound 14, 3′-Dihydro-3′-deoxy-3′(R)-(pyridazin-3-yl) acetylamino spectinomycin trihydrobromide], the “Rv1258c KO MIC” value in data set [1] stood at 12.5 µg/mL. For the same compound, in data set [4], the “Efflux Ratio” value stood at 2.

Take `Br.Br.Br.CNC1C(O)C(NC)C2OC3(O)C(OC(C)C[C@H]3NC(=O)Cc3cnccn3)OC2C1O` (stereo partly drawn) [Compound 15, 3′-Dihydro-3′-deoxy-3′(R)-(pyrazin-2-yl)acetylamino spectinomycin trihydrobromide]: the “Rv1258c KO MIC” value in data set [1] was 25 µg/mL. Besides, the “Efflux Ratio” value in data set [4] stood at 1.

`Br.Br.Br.CNC1C(O)C(NC)C2OC3(O)C(OC(C)C[C@H]3NC(=O)Cc3ccncn3)OC2C1O` (stereo partly drawn) [Compound 16, 3′-Dihydro-3′-deoxy-3′(R)-(pyrimidin-4-yl)acetylamino spectinomycin trihydrobromide]: in data set [1], the “Rv1258c KO MIC” value stood at 25 µg/mL. The “Efflux Ratio” value in data set [4] is recorded as 0.5.

For the compound `Br.Br.Br.CNC1C(O)C(NC)C2OC3(O)C(NC(=O)Cc4csc(N)n4)CC(C)OC3OC2C1O` [Compound 18, 3′-Dihydro-3′-deoxy-3′(R)-(2-aminothiazol-4-yl)acetylamino spectinomycin trihydrobromide], the “Ribosome IC50” value in data set [3] is 0.62 µg/mL. Also, the “Rv1258c KO MIC” value in data set [1] stood at 6.3 µg/mL. For the same compound, in data set [4], the “Efflux Ratio” value worked out at 1.

`Br.Br.Br.CNC1C(O)C(NC)C2OC3(O)C(NC(=O)Cc4nccs4)CC(C)OC3OC2C1O` [Compound 19, 3′-Dihydro-3′-deoxy-3′(R)-(thiazol-2-yl) acetylamino spectinomycin trihydrobromide]: in data set [3], the “Ribosome IC50” value amounted to 0.72 µg/mL. Also, the “Rv1258c KO MIC” value in data set [1] was determined as 6.3 µg/mL. In data set [4], the “Efflux Ratio” value was found to be 1.

For `Br.Br.Br.CNC1C(O)C(NC)C2OC3(O)C(NC(=O)Cc4c[nH]cn4)CC(C)OC3OC2C1O` [Compound 20, 3′-Dihydro-3′-deoxy-3′(R)-(1H-imidazol-4-yl)acetylamino spectinomycin trihydrobromide], the “Ribosome IC50” value in data set [3] was 1.10 µg/mL. In addition, the “Rv1258c KO MIC” value in data set [1] amounted to 12.5 µg/mL. Further, the “H37Rv MIC” value in data set [2] is 25 µg/mL. Besides, the “Efflux Ratio” value in data set [4] was found to be 2.

Consider `Br.Br.Br.CNC1C(O)C(NC)C2OC3(O)C(NC(=O)Cn4cccn4)CC(C)OC3OC2C1O` [Compound 22, 3′-Dihydro-3′-deoxy-3′(R)-(1H-pyrazol-1-yl)acetylamino spectinomycin trihydrobroride], for which, in data set [3], the “Ribosome IC50” value turned out to be 0.42 µg/mL. The “Rv1258c KO MIC” value in data set [1] came to 6.3 µg/mL. Further, the “H37Rv MIC” value in data set [2] was determined as 6.3 µg/mL. Further, the “Efflux Ratio” value in data set [4] worked out at 1.

As to `Br.Br.Br.CNC1C(O)C(NC)C2OC3(O)C(OC(C)C[C@H]3NC(=O)Cn3ccnc3)OC2C1O` (stereo partly drawn) [Compound 23, 3′-Dihydro-3′-deoxy-3′(R)-(1H-imidazol-1-yl)acetylamino spectinomycin trihydrobromide], the “Ribosome IC50” value in data set [3] was determined as 1.51 µg/mL. Further, in data set [1], the “Rv1258c KO MIC” value was found to be 12.5 µg/mL. Further, the “H37Rv MIC” value in data set [2] is 100 µg/mL. Besides, in data set [4], the “Fold change” value amounted to 8 fold; the “Efflux Ratio” value amounted to 8.

Regarding `Br.Br.Br.CNC1C(O)C(NC)C2OC3(O)C(NC(=O)Cc4nc5ccccc5o4)CC(C)OC3OC2C1O` [Compound 24, 3′-Dihydro-3′-deoxy-3′(R)-(benzo[d]oxazol-2-yl)acetylamino spectinomycin trihydrobroride], the “Ribosome IC50” value in data set [3] was determined as 0.61 µg/mL. For the same compound, the “Rv1258c KO MIC” value in data set [1] turned out to be 3.1 µg/mL. Also, the “H37Rv MIC” value in data set [2] is 6.3 µg/mL. The “Efflux Ratio” value in data set [4] is 2.

Consider `Br.Br.Br.CNC1C(O)C(NC)C2OC3(O)C(OC(C)C[C@H]3NC(=O)Cc3nc4ccccc4n3C)OC2C1O` (stereo partly drawn) [Compound 26, 3′-Dihydro-3′-deoxy-3′(R)-(1-methyl-1H-benzo[d]imidazol-2-yl)acetylamino spectinomycin trihydrobroride], for which the “Ribosome IC50” value in data set [3] was found to be 0.26 µg/mL. Also, the “Rv1258c KO MIC” value in data set [1] came to 3.1 µg/mL. Also, the “H37Rv MIC” value in data set [2] is 6.3 µg/mL. In addition, in data set [4], the “Efflux Ratio” value came to 2.

Regarding `CNC1C(O)C(NC)C2OC3(O)C(NC(=O)Cc4cc5ccccc5[nH]4)CC(C)OC3OC2C1O` [Compound 28, 3′-Dihydro-3′-deoxy-3′(R)-(1H-indol-2-yl)acetylamino spectinomycin], the “Ribosome IC50” value in data set [3] was 0.77 µg/mL. The “Rv1258c KO MIC” value in data set [1] was determined as 0.8 µg/mL. Further, in data set [2], the “H37Rv MIC” value stood at 25 µg/mL. Further, in data set [4], the “Fold change” value is recorded as 32 fold; the “Efflux Ratio” value turned out to be 32.

For the compound `Br.Br.Br.CNC1C(O)C(NC)C2OC3(O)C(NC(=O)Cc4ccc(C)cn4)CC(C)OC3OC2C1O` [Compound 31, 3′-Dihydro-3′-deoxy-3′(R)-(5-methylpyridin-2-yl)acetylamino spectinomycin trihydrobromide], the “Ribosome IC50” value in data set [3] is 0.54 µg/mL. Also, in data set [1], the “Rv1258c KO MIC” value is 3.1 µg/mL. For the same compound, the “H37Rv MIC” value in data set [2] turned out to be 3.1 µg/mL.

On to `Br.Br.Br.CNC1C(O)C(NC)C2OC3(O)C(NC(=O)Cc4ccc(N)cn4)CC(C)OC3OC2C1O` [Compound 37, 3′-Dihydro-3′-deoxy-3′(R)-(5-aminopyridin-2-yl)acetylamino spectinomycin trihydrobromide], for which, in data set [3], the “Ribosome IC50” value was 0.30 µg/mL. Moreover, in data set [1], the “Rv1258c KO MIC” value was 6.3 µg/mL. The “H37Rv MIC” value in data set [2] is 6.3 µg/mL.

As to `CNC1C(O)C(NC)C2OC3(O)C(OC(C)C[C@H]3NC(=O)Cc3ccc(OC(F)F)cn3)OC2C1O.Cl.Cl.Cl` (stereo partly drawn) [Compound 40, 3′-Dihydro-3′-deoxy-3′(R)-(5-(difluoromethoxy)pyridin-2-yl)acetylamino spectinomycin trihydrochloride], in data set [4], the “Efflux Ratio” value is on record as 2.
